Data as given in patent US20250326749A1, “COMPOUNDS, COMPOSITIONS, AND METHODS OF USING THEREOF” (Sionna Therapeutics Inc., priority 2022, published 2025).

Target: T1, ΔF508-CFTR (Homo sapiens, UniProt P13569, DEL508-508)
T1 construct: expressed in transfected cells; host or cells: CFSMEo- (human CF submucosal gland epithelial cells, ΔF508/Q2X), transiently transfected by nucleofection
Assay: ΔF508-CFTR-HRP trafficking assay (cell surface expression of ΔF508-CFTR)
Assay type: cell-based
Conditions: CFSMEo- cells transiently transfected with ΔF508-CFTR-HRP; test agent 3 μM, 48 h; HRP chemiluminescence
Excerpt: Test agents were screened for their effect on cell surface expression of ΔF508-CFTR using the ΔF508-CFTR-HRP trafficking assay. For this assay, a ΔF508-CFTR expression construct was designed with an in-frame insertion of a horseradish peroxidase (HRP) tag into the 4th extracellular loop of CFTR. The HRP tag would be presented extracellularly, in cells transiently transfected with the ΔF508-CFTR-HRP construct, following correction of the ΔF508-CFTR trafficking defect. The quantity of ΔF508-CFTR-HRP expressed on the plasma membrane could therefore be determined by measuring an HRP-dependent signal after the application of a cell-impermeable HRP substrate.
In brief, CF submucosal gland epithelial cells (CFSMEo-), derived from the airways of a CF patient (ΔF508/Q2X) and provided by Dr. Dieter Gruenert, University of California-San Francisco, were cultured at 37° C. with 5% CO2 in minimum essential medium (MEM) with Earle's salt and nonessential amino acids, supplemented with 10% (volume per volume [v/v]) fetal bovine serum, 2 mM L-glutamine and 1× (v/v) penicillin/streptomycin and grown in tissue culture-treated flasks coated with an extracellular matrix (ECM) cocktail consisting of 10 μg/mL human fibronectin, 30 μg/mL bovine collagen type I, and 100 μg/mL bovine serum albumin in LHC basal medium. These CFSMEo^− cells were transiently transfected with 4 μg of the ΔF508-CFTR-HRP expression construct using the Lonza 4D-Nucleofector Core unit (Lonza, Catalogue No. AAF-1002B) with the X unit (Lonza, Catalogue No. AAF-1002X) and SF Cell Line 4D-Nucleofector X Kit L (Lonza, Catalogue No. V4XC-2024) according to the manufacturer's instructions and plated at 1.2×10^4 cells/well onto collagen-coated, 96-well plates (Corning Inc.). Twenty-four h post-transfection, cells were treated with test agents, solubilized in DMSO at a concentration of 3 μM in replicates of 3, and allowed to incubate for 48 h. To detect HRP expression, cell culture media was removed, cells were washed with PBS and 100 μL of Luminata Forte HRP chemiluminescent substrate (EMD Millipore, Burlington, MA) was added to each well. Following a 5-minute incubation, chemiluminescence was measured in relative luminescent units (RLUs) using an EnVision plate reader (Perkin Elmer, Waltham, MA).
The ΔF508-CFTR-HRP trafficking data was normalized to the vehicle treated control (0.3% DMSO), followed by calculation of the mean, standard deviation, and standard error. If the test agent increased cell surface expression of ΔF508-CFTR-HRP relative to the vehicle-treated control, then that test agent was considered a ΔF508-CFTR corrector. Based on the description above, the biological activity of the examples in this disclosure is collected in Table 2.

T1 sequence (P13569 with tags, fused parts or gaps DEL508-508): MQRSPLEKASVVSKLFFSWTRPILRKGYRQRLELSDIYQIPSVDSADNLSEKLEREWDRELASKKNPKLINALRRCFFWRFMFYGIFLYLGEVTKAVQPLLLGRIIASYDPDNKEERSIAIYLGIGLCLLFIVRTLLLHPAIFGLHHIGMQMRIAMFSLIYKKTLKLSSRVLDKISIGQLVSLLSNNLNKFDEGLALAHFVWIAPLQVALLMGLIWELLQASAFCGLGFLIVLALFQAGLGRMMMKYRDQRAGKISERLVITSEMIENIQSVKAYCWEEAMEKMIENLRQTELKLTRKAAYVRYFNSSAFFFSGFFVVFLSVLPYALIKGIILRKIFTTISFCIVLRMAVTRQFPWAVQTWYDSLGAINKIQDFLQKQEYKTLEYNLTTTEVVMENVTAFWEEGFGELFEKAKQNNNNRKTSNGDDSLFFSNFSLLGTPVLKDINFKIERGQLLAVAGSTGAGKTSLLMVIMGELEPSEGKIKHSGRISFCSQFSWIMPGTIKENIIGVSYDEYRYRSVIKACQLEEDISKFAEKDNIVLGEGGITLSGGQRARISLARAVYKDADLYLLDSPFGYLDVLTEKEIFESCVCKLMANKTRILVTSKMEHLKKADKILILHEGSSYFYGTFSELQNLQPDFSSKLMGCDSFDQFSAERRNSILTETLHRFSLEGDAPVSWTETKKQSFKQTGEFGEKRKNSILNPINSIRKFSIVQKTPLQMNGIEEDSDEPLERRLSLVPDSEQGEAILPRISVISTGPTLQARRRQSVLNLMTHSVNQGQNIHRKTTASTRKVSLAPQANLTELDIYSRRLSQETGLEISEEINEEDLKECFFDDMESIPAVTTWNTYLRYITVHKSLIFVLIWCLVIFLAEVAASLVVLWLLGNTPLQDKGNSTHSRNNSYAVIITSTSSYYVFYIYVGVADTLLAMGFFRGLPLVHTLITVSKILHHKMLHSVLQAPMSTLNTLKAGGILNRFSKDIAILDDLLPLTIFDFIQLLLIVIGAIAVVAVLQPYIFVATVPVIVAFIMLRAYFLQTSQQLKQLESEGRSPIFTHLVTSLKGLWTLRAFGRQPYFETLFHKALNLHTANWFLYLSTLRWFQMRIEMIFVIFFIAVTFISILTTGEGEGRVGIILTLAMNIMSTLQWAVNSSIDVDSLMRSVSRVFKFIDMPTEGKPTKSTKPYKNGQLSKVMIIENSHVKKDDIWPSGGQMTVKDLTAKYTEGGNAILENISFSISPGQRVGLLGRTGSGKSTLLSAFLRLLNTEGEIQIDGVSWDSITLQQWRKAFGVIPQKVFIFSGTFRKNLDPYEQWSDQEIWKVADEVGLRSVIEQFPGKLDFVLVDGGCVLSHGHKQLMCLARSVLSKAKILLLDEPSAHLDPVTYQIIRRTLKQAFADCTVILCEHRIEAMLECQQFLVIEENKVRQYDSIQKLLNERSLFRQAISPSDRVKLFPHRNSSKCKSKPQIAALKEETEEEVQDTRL

| RLUs: ΔF508-CFTR-HRP trafficking data normalized to the vehicle treated control (0.3% DMSO) | Compound |
| --- | --- |
| B (RLU 3.5 μM-5.0 μM) | C[C@H](Oc1cncc(-n2nc(C(F)(F)F)c3c2[C@H](CN2CCC(C(=O)O)CC2)CCC3)c1)c1ccc2c(c1)OC(F)(F)O2 (single isomer, unassigned) [124 (P2)] |
| C (RLU 0.0 μM-3.5 μM) | C[C@H](Nc1cc(-n2nc(C(F)(F)F)c3c2[C@H](OC24CC(C(=O)O)(C2)C4)CCC3)ccc1F)c1ccc2c(c1)OC(F)(F)O2 (single isomer, unassigned) [95 (P2)] |
| C (RLU 0.0 μM-3.5 μM) | C[C@H](Oc1cc(-n2nc(C(F)(F)F)c3c2N(CC24CC(C(=O)O)(C2)C4)CCC3)cnn1)c1cc2c(cn1)OC(F)(F)O2 (single isomer, unassigned) [Example 2] |
| C (RLU 0.0 μM-3.5 μM) | C[C@H](Oc1cc(-n2nc(C(F)(F)F)c3c2[C@@H](OC24CCC(C(=O)O)(CC2)CC4)CCC3)cc(F)n1)c1ccc2c(c1)OC(F)(F)O2 (single isomer, unassigned) [81 (P2)] |
| B (RLU 3.5 μM-5.0 μM) | C[C@H](Oc1cnnc(-n2nc(C(F)(F)F)c3c2[C@@H](Oc2ccc(C(=O)O)cc2)CCC3)c1)c1ccc2c(c1)OC(F)(F)O2 (single isomer, unassigned) [Example 36h] |
| C (RLU 0.0 μM-3.5 μM) | C[C@H](Oc1cc(-n2nc(C(F)(F)F)c3c2C(O[C@H]2CC[C@H](C(=O)O)CC2)CCC3)ccn1)c1cc2c(cn1)OC(F)(F)O2 (single isomer, unassigned) [Example 48] |
| C (RLU 0.0 μM-3.5 μM) | C[C@H](Nc1cc(-n2nc(C(F)(F)F)c3c2[C@H](OC24CC(C(=O)O)(C2)C4)CCC3)ccc1F)c1cc2c(cc1F)OC(F)(F)O2 (single isomer, unassigned) [96 (P2)] |
| A (RLU 5.0 μM-10 μM) | C[C@H](Oc1cc(-n2nc(C(F)(F)F)c3c2[C@@H](O[C@H]2CC[C@H](C(=O)O)CC2)CCC3)cc(F)n1)c1ccc2c(c1)OC(F)(F)O2 (single isomer, unassigned) [80 (P1)] |
| B (RLU 3.5 μM-5.0 μM) | C[C@H](Oc1cc(-n2nc(C(F)(F)F)c3c2[C@@H](Nc2ccc(C(=O)O)cc2)CCC3)ccn1)c1cc2c(cc1F)OC(F)(F)O2 (single isomer, unassigned) [Example 110] |
| C (RLU 0.0 μM-3.5 μM) | C[C@H](Nc1cc(-n2nc(C(F)(F)F)c3c2[C@@H](OC24CC(C(=O)O)(C2)C4)CCC3)ccc1F)c1ccc2c(c1)OC(F)(F)O2 (single isomer, unassigned) [Example 95 (P1)] |
| B (RLU 3.5 μM-5.0 μM) | C[C@H](Oc1cc(-n2nc(C(F)(F)F)c3c2N(Cc2ccc(C(=O)O)cc2)CCC3)cnn1)c1ccc2c(c1)OC(F)(F)O2 (single isomer, unassigned) [Example 4] |
| C (RLU 0.0 μM-3.5 μM) | C[C@H](Nc1cc(-n2nc(C(F)(F)F)c3c2[C@@H](NC24CC(C(=O)O)(C2)C4)CCC3)ccc1F)c1ccc2c(c1)OC(F)(F)O2 (single isomer, unassigned) [94 (P1)] |
| C (RLU 0.0 μM-3.5 μM) | C[C@H](Oc1cncc(-n2nc(C(F)(F)F)c3c2N(C(=O)c2ccc(C(=O)O)cc2)CCC3)c1)c1ccc2c(c1)OC(F)(F)O2 (single isomer, unassigned) [Example 16] |
| C (RLU 0.0 μM-3.5 μM) | C[C@H](Oc1cccc(-n2nc(C(F)(F)F)c3c2[C@H](C(=O)N2CCC(C(=O)O)CC2)CCC3)c1)c1ccc2c(c1)OC(F)(F)O2 (single isomer, unassigned) [120 (P2)] |

Continued, molecule first:

| Compound | RLUs: ΔF508-CFTR-HRP trafficking data normalized to the vehicle treated control (0.3% DMSO) |
| --- | --- |
| CC(c1ccc2c(c1)OC(F)(F)O2)C1(c2cc(-n3nc(C(F)(F)F)c4c3C(Oc3ccc(C(=O)O)cc3)CCC4)ccn2)COC1 (stereo not shown) [Example 119, 4-[[1-[2-[3-[1-(2,2-difluoro-1,3-benzodioxol-5-yl)ethyl]oxetan-3-yl]-4-pyridyl]-3-(trifluoromethyl)-4,5,6,7-tetrahydroindazol-7-yl]oxy]benzoic] | C (RLU 0.0 μM-3.5 μM) |
| C[C@H](Oc1cc(-n2nc(C(F)(F)F)c3c2[C@@H](Oc2ccc(C(=O)O)cc2)CCC3)cnc1F)c1cc2c(cc1F)OC(F)(F)O2 (single isomer, unassigned) [Example 36d] | B (RLU 3.5 μM-5.0 μM) |
| CC(C)[C@H](Nc1cc(-n2nc(C(F)(F)F)c3c2[C@@H](Oc2ccc(C(=O)O)cc2)CCC3)ccn1)c1ccc2c(c1)OC(F)(F)O2 (single isomer, unassigned) [Example 89] | C (RLU 0.0 μM-3.5 μM) |
| C[C@H](Nc1nc(-n2nc(C#N)c3c2[C@H](OC24CC(C(=O)O)(C2)C4)CCC3)ccc1F)c1ccc2c(c1)OC(F)(F)O2 (single isomer, unassigned) [108 (P2)] | C (RLU 0.0 μM-3.5 μM) |
| C[C@H](Oc1cccc(-n2nc(C(F)(F)F)c3c2[C@@H](Oc2ccc(C(=O)O)cc2)CCC3)n1)c1cc2c(cc1F)OC(F)(F)O2 (single isomer, unassigned) [Example 36l] | A (RLU 5.0 μM-10 μM) |
| C[C@H](Oc1cccc(-n2nc(C(F)(F)F)c3c2C(Sc2ccc(C(=O)O)cc2)CCC3)c1)c1ccc2c(c1)OC(F)(F)O2 (stereo partly drawn) [Example 70, 4-((1-(3-((S)-1-(2,2-difluorobenzo[d][1,3]dioxol-5-yl)ethoxy)phenyl)-3-(trifluoromethyl)-4,5,6,7-tetrahydro-1H-indazol-7-yl)thio)benzoic acid] | A (RLU 5.0 μM-10 μM) |
| C[C@H](Oc1cc(-n2nc(C(F)(F)F)c3c2[C@@H](Oc2ccc(C(=O)O)cc2)CCC3)ncc1F)c1ccc2c(c1)OC(F)(F)O2 (single isomer, unassigned) [Example 36i] | A (RLU 5.0 μM-10 μM) |
| C[C@H](Nc1cc(-n2nc(C#N)c3c2[C@@H](OC24CC(C(=O)O)(C2)C4)CCC3)ncc1F)c1ccc2c(c1)OC(F)(F)O2 (single isomer, unassigned) [107 (P1)] | C (RLU 0.0 μM-3.5 μM) |
| C[C@H](Oc1cccc(-n2nc(C(F)(F)F)c3c2C(O[C@H]2CC[C@H](C(=O)O)CC2)CCC3)c1)c1ccc2c(c1)OC(F)(F)O2 (relative stereo) [Example 37] | A (RLU 5.0 μM-10 μM) |
| C[C@H](Oc1cc(-n2nc(C(F)(F)F)c3c2[C@@H](Oc2ccc(-c4nc(=O)o[nH]4)cc2)CCC3)ccc1F)c1ccc2c(c1)OC(F)(F)O2 (single isomer, unassigned) [Example 111] | C (RLU 0.0 μM-3.5 μM) |
| C[C@H](Nc1cc(-n2nc(C(F)(F)F)c3c2[C@@H](Nc2ccc(C(=O)O)cc2)CCC3)ccn1)c1ccc2c(c1)OC(F)(F)O2 (single isomer, unassigned) [Example 93] | A (RLU 5.0 μM-10 μM) |
| C[C@H](Oc1cc(-n2nc(C(F)(F)F)c3c2[C@@H](OC24CC(c5nc(=O)o[nH]5)(C2)C4)CCC3)ccc1F)c1ccc2c(c1)OC(F)(F)O2 (single isomer, unassigned) [85 (P1)] | C (RLU 0.0 μM-3.5 μM) |
| C[C@H](Oc1cc(-n2nc(C#N)c3c2[C@H](OC24CC(C(=O)O)(C2)C4)CCC3)ccc1F)c1ccc2c(c1)OC(F)(F)O2 (single isomer, unassigned) [105 (P2)] | B (RLU 3.5 μM-5.0 μM) |
| C[C@H](Nc1cc(-n2nc(C#N)c3c2[C@H](OC24CC(C(=O)O)(C2)C4)CCC3)ncc1F)c1ccc2c(c1)OC(F)(F)O2 (single isomer, unassigned) [107 (P2)] | C (RLU 0.0 μM-3.5 μM) |
